# According to PMC6627486, “Ipomoeassin F Binds Sec61α to Inhibit Protein Translocation” (Journal of the American Chemical Society, 2019):
# Experiments:
# MDA-MB-231 = experiment: AlamarBlue cytotoxicity assay, MDA-MB-231; type: cell-based, human; conditions: Homo sapiens; MDA-MB-231, 72 h, AlamarBlue; read-out: Cytotoxicity (IC50)
# Method: (§1) AlamarBlue Cytotoxicity Assay
# (§2) MDA-MB-231, MCF-10A and HCT116. Viable cells were counted with a hemocytometer immediately before each experiment . Experiments were done in triplicate. First, 100 μL of MDA-MB-231 cells or MCF-10A cells at the density of 50,000 cells/mL was seeded in a 96-well plate (5,000 cells/well) and then incubated at 37 °C and 5% CO2 for 24 h. The compounds were dissolved in DMSO (dimethyl sulfoxide) to make drug stocks (10 mM). The stock solutions were diluted with the complete DMEM high glucose culture medium to make a series of gradient fresh working solutions right before each test. Subsequently, the cells were treated with 100 μL of the freshly made gradient working solution in a total volume of 200 μL/well for 72 h. After that, the media were discarded and 200 μL of the fresh complete medium containing 10% of AlamarBlue (resazurin) stock solution was added to each well. The plate was then incubated at 37 °C and 5% CO2 for another 3 h. Emission of each well at 620 nm was detected by a microplate reader (BioTek Synergy H1) at excitation 580 nm. […]
# (§3) Microplate Reader. The percentage of viability compared to the negative control (DMSO-treated cells) […]
# (§4) was determined. […]
# MCF7 = experiment: MTT cytotoxicity assay, MCF7; type: cell-based, human; conditions: Homo sapiens; MCF7, 72 h, MTT; read-out: Cytotoxicity (IC50)
# Method: Two human breast cancer cell lines (MDA-MB-231 and MCF7) and one human breast non-tumorigenic epithelial cell line (MCF-10A) were maintained in a DMEM high glucose culture medium supplemented with 10% fetal bovine serum (FBS) and 2 mM L-glutamine. The cells were grown in a humidified atmosphere of 5% CO2 and 95% air at 37 °C . The culture medi um w as changed every 2–4 days depending on cell density. Cell cultures were passaged once a week using 0.125% trypsin-EDTA to detach the cells from culture flasks/dishes.
# The human colorectal cancer cell line HCT116 was maintained in McCoy’s 5A (modified) medium supplemented with 10% fetal bovine serum (FBS). The human embryonic kidney (HEK293T and HEK293 FRT TRex) cell line was maintained in DMEM high glucose culture medium supplemented with 10% fetal bovine serum (FBS).
# HepG2 cells were cultured in DMEM supplemented with 10% fetal bovine serum and 2 mM L-glutamine at 37°C under 5% CO2.
# Viable cells were counted with a hemocytometer immediately before each experiment. Experiments were done in triplicate. First, 100 μL of MCF7 cells at the density of 50,000 cells/mL were seeded in a 96-well plate (5,000 cells/well), which was incubated at 37 °C and 5% CO2 atmosphere for 24 h. The compounds were dissolved in DMSO (dimethyl sulfoxide) to make drug stocks (10 mM). The stock solutions were diluted with the complete DMEM high glucose culture medium to make a series of gradient fresh working solutions right before each test. Subsequently, the cells were treated with 100 μL of the freshly made gradient working solution in a total volume of 200 μL/well for 72 h. After that, the media were discarded and 200 μL of the fresh complete medium containing 10% of MTT stock solution (5 mg/mL) was added to each well. The plate was then incubated at 37 °C and 5% CO2 for 3 h. Next, 180 μL of the medium was discarded from each well , and 180 μL of DMSO was added to each well to dissol ve formazan crystals. Absorbance of formazan was detected by a microplate reader (BioTek Synergy H1) at 570 nm with 650 nm as the reference wavelength. The percentage of viability compared to the negative control (DMSO-treated cells) was determined . GraphPad Prism 6 software was used to make a plot of %
# [1] = AlamarBlue cytotoxicity assay, MCF-10A; type: cell-based, human; conditions: human, 72 h
# Method: as §1, §2, §3, §4
# HepG2 cells = experiment: Pulse-chase analysis of protein secretion in HepG2 cells; type: cell-based, human; conditions: HepG2; 100 nM Ipom-F or 42 nM mycolactone 13.5 h; 100 nM bortezomib 2 h
# Method: Pulse‐Chase Analysis of Protein Secretion in HepG2 Cells
# The secretion assay was performed using a pulse–chase approach as described previously.20 HepG2 cells were treated with DMSO, 100 nM compound 8, 100 nM Ipom-F or […] mycolactone for 13.5 h before initiating the experiment, whereas pre-treatment with bortezomib 100 nM (Stratech) or 2.5 μg/ml brefeldin A were performed for 2 h and 1 h, respectively. Cells were starved in Met‐ and Cys‐free DMEM (Invitrogen) for 20 min at 37°C. Labeling was initiated by addition of fresh starvation medium containing […] [35S]Met and [35S]Cys protein labeling mix (Perkin Elmer; specific activity >1,000 Ci/mmol) for 15 min. After washing with PBS, cells were incubated in serum‐free DMEM supplemented with excess unlabeled L‐Met and L‐Cys (2 mM final concentration) for 2 h. The compounds were included throughout the starvation, pulse and chase. Secreted proteins in the media were recovered by precipitation with 13% trichloroacetic acid, washed in acetone and dissolved in 2x sample buffer. Cells were solubilized with Triton X‐100 lysis buffer (20 mM Tris, pH 7.5, 150 mM NaCl, 1% TX-100, 1 mM EDTA, 1 mM EGTA) supplemented with protease inhibitor cocktail and phenylmethylsulfonyl fluoride. Equal amounts
# HCT116 = experiment: cells; type: cell-based; conditions: Homo sapiens, HCT-116; HCT116, 72 h, Alamar Blue, assayed separately; read-out: Cytotoxicity (IC50)
# Method: as §1
# as §2, with “nm. For HCT116 WT and mutant lines, cells were seeded at 1000 cells/ well in complete McCoys medium. Compounds were diluted from a DMSO stock into culture medium as described above. Cells were treated for 96 h, then viability measured with AlamarBlue, detected using the conditions described but with a BMG Fluostar Optima Microplate Reader. The percentage of viability compared to the negative control (DMSO-treated cells) was determined.” for “nm.”
# HCT116 and HEK293T. Viable cells were counted using an automated cell counter (BioRad TC20) before each experiment. […] Emission of each well at 620 nm was detected by a microplate reader (Perkin Elmer EnSpire) at excitation 580 nm. The percentage of viability compared to the negative control (DMSO -treated cells) was determined. […]
# Figure S1. […] (C) HCT116 colon carcinoma cells were treated with increasing concentrations of analogues 8, 14, 15, CT8, ipomoeassin F or carrier (0.1% DMSO) and cell viability was assessed at 72 h by the Alamar Blue assay (mean ± S.D., n = 4). […]
# HCT-116 cells = experiment: Metabolic labelling of nascent proteins in HCT116 cells; type: cell-based, human; conditions: HCT-116, 1 μM, 35S labelling
# Method: Metabolic Labelling Assays in HCT116 Cells
# HCT116 cells were counted using an automated cell counter (BioRad TC20) immediately prior to each experiment. 3 ml of HCT116 cells at a density of 0.166x10^6 cells/mL were seeded to 6-well plates (0.5x10^6 cells/well) and then incubated at 37 °C and 5% CO 2 for 24 h. The compounds were dissolved in DMSO to make drug stocks (10 mM). The stock solutions were diluted with DMEM high glucose culture medium lacking methionine and cysteine to make a fresh working solution immediately prior to each test. Cells were washed twice and 1ml of fresh DMEM lacking methionine and cysteine was added to each well.
# Subsequently, the cells were treated with 250 µl of compound solutions in a total volume of 1 ,250 µl/well.
# The plate was then incubated at 37 °C and 5% CO 2 for 30 min before 100 µCi 35S-labelled methionine/cysteine was added (Expre35s35s protein labelling mix). Plates were incubated for a further 30 min, then media collected and cells harvested by scraping after four washes in ice-cold PBS. Total protein was acquired by RIPA extraction from the cell pellet, cytoplasmic fraction was acquired by partial permeabilization of the outer cell membranes with 0.15% Digitonin followed by centrifugation, secreted proteins were acquired by TCA precipitation of the media. […]
Compound,IC50 (MDA-MB-231) [nM],IC50 (MCF7) [nM],IC50 [1] [nM],secretory proteins in cell media (HepG2 cells),IC50 (HCT116) [nM],inhibition of production of secreted proteins compared with ipomoeassin F (HCT-116 cells)
C/C=C(\C)C(=O)O[C@@H]1[C@@H](O)[C@@H]2O[C@H]3[C@H](O[C@@H](CCCCC)CCCCCCC(=O)CCC(=O)OC[C@@H](O2)[C@H]1OC(=O)/C=C/c1ccc(OCc2cn(CCOCCOCCOCCNc4ccc([N+](=O)[O-])c5nonc45)nn2)cc1)O[C@H](C)[C@H](OC(C)=O)[C@@H]3O [compound 11],2.8,21.1,2,–,–,–
"CC(C)C[C@H](NC(=O)[C@H](Cc1ccccc1)NC(=O)c1cnccn1)B(O)O [bortezomib, reference compound]",–,–,–,had no effect,–,–
CCCCC[C@H]1CCCCCCC(=O)CCC(=O)OC[C@H]2O[C@@H](O[C@H]3[C@H](O1)O[C@H](C)[C@H](OC(C)=O)[C@@H]3O)[C@H](O)[C@@H](OC(=O)C(C)CC)[C@@H]2OC(=O)/C=C/c1ccccc1 (stereo partly drawn) [compound 15],–,–,–,–,480,less potently
C/C=C(\C)C(=O)O[C@@H]1[C@@H](O)[C@@H]2O[C@H]3[C@H](O[C@@H](CCCCC)CCCCCCC(=O)CCC(=O)OC[C@@H](O2)[C@H]1OC(=O)/C=C/c1ccc(OCc2cn(-c4cc5ccc(O)cc5oc4=O)nn2)cc1)O[C@H](C)[C@H](OC(C)=O)[C@@H]3O [compound 10],8.9,172,11.3,–,–,–
C#CCOc1ccc(/C=C/C(=O)O[C@@H]2[C@@H](O)[C@@H]3O[C@H]4[C@H](O[C@@H](CCCCC)CCCCCCC(=O)CCC(=O)OC[C@@H](O3)[C@H]2OC(=O)/C(C)=C/C)O[C@H](C)[C@H](OC(C)=O)[C@@H]4O)cc1 [compound 3],6.3,22.2,9.6,–,–,–
